Measurements: patent US20240018120A1, “MAGL INHIBITORS” (H. LUNDBECK A/S, priority 2020, published 2024)
Values belong to the compound of their own block, whether it stands above or below them.

Legend:
MAGL [1] = target: T1, MAGL (Rattus norvegicus, UniProt Q8R431); experiment: MAGL IC50 values marked (rat) in Table 1; format: biochemical; settings: cell marked (rat) in the human PC3 column
T1 sequence (Q8R431 1-303): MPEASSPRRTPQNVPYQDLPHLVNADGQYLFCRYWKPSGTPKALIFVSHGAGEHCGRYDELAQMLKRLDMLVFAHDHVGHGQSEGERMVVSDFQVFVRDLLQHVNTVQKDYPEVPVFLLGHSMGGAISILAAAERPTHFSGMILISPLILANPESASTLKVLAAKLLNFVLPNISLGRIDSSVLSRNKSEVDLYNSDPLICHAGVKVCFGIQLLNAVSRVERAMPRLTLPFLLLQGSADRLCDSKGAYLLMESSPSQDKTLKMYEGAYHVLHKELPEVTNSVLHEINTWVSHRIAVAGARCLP

MAGL [2] = target: T2, MAGL (Homo sapiens, UniProt Q99685); experiment: In vitro competitive activity-based protein profiling, PC3 human cell membrane proteomes; format: biochemical; design: endogenous in cells; host or cells: PC3 human cells (membrane proteome); settings: human PC3 membrane proteome
T2 sequence (Q99685 1-303): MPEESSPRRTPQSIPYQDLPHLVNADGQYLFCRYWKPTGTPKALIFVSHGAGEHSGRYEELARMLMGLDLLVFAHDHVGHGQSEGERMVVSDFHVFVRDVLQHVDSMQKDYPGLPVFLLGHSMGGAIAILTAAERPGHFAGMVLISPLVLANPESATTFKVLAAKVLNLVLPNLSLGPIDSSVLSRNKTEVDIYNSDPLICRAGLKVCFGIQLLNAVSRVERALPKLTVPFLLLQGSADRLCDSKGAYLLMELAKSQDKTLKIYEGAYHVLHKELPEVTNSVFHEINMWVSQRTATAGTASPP
Procedure, shortened: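 Competitive ABPP in PC3 membrane proteome (2.0 mg/mL protein): inhibitors preincubated 30 min at 37° C, then JW912-Bodipy probe added for 30 min at room temperature. MAGL band fluorescence after SDS-PAGE normalised to DMSO; IC50 from 4-parameter sigmoidal fit.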

[3] = tested on: cryopreserved human hepatocytes; experiment: In vitro human hepatocyte stability; format: in vitro ADME; settings: human hepatocytes 0.5×10^6 cells/mL, 1 μM
Experimental: The metabolic stability of test articles (1 μM) in commercially sourced, pooled donor, cryopreserved human hepatocytes (0.5×10^6 cells/mL) was determined in duplicate. The CLint reactions (250 μL) were initiated by addition of test compound. Aliquots (25 μL) were taken at 0, 15, 30, 45, 60, 90, 120 and 240 minutes and then protein crashed with ice-cold acetonitrile containing internal standard then centrifuged (3220 g for 25 minutes). Supernatant was used for LC-MS/MS analysis. The in vitro half-life (in vitro t½) was determined from the slope value: in vitro t1/2=−0.693/k. Conversion of the in vitro t1/2 (in min) into the scale-up unbound intrinsic clearance (Scaled-up unbound CLint, in mL/min/kg) was done using the following equation (mean of duplicate determinations), with data shown in Table 5: Scaled-up unbound CLint=kV/N×scaling factor. V=incubation volume (0.25 mL); N=number of hepatocytes per well ([…]). Scaling factors for in vivo intrinsic clearance prediction are listed below: […]

MAGL [4] = target: T2, MAGL; experiment: In vitro competitive substrate hydrolysis enzyme activity assay (pNPA), HEK293 cell lysates; format: biochemical; design: expressed in transfected cells; host or cells: HEK293; settings: HEK293 lysate
Procedure, shortened: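 Lysates of HEK293 cells expressing human MAGL (~1.2 μg protein) preincubated 30 min at 25° C with inhibitor in 50 mM HEPES pH 7.0, 200 mM KCl, 1 mM EDTA. pNPA substrate then added (2× stock 2.5 mM), and A405 followed for 20 min at 25° C. Rates normalized to DMSO, and IC50 from 4-parameter fit.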

[5] = tested on: maximal electroshock seizure threshold (MEST) model; experiment: Maximal electroshock seizure threshold (MEST) model in the rat; format: in vivo; settings: 10 mg/kg p.o., 240 min pre-treatment
Experimental: In the MEST model, a low-intensity electrical current of high frequency and short duration is applied to induce tonic convulsions.
Animals were randomly assigned to vehicle, compound treatment or Lamotrigine dose groups. Animals were dosed at 5 mL/kg according to treatment groups (n=12 or 16/group), with either vehicle (0.5% MC) p.o. for Example 6, vehicle (10% HP-b-CD) for Example 8, test compound at 10 mg/kg p.o. 240 min pre-treatment time, or Lamotrigine p.o. 360 min pre-treatment time. Rats were individually assessed for production of a tonic hind limb extensor seizure following a single corneally delivered electroshock of 0.3 second duration, using an ‘up and down method’ of shock titration (Kimball A W et al., 1957). Thus, the first rat within a treatment group was given a shock at the expected or estimated CC50 current (current producing tonic hind limb extensor seizures in 50% of animals). […] This procedure was continued for all rats within a treatment group. Induction of seizure was measured as an all-or-nothing effect scored as either present (+) or absent (0) for each animal. […]
Significant differences between drug-treated animals and controls were assessed according to Litchfield and Wilcoxon (1949) or One-Way ANOVA followed by Dunnett's multiple comparisons test.

[6] = tested on: kainic acid seizure model; experiment: Kainic acid seizure model in the rat; format: in vivo
Experimental: Kainic acid is an analog of the excitatory neurotransmitter, glutamate and acts as an agonist of kainic acid receptors. After systemic injection, kainic acid induces prolonged excitatory responses with many of the features of human temporal lobe epilepsy.
Rats, placed in individual Plexiglas cages (33×21×18 cm), are injected with kainic acid (20 mg/kg i.p.). The occurrences of the following symptoms are noted over a 120-minute period 30 minutes after kainic acid injection: forelimb clonus, rearings and rearings with falling, clonic convulsions, tonic convulsions and death. The presence of each symptom and the latencies to the first appearance of the symptoms are measured. The number of forelimb clonus is counted.
12 rats are studied per group. The test is performed partially blind.
The test substances will be evaluated at multiple doses, administered p.o. 240 minutes before the test, and compared with the corresponding vehicle control group (Group 2, administered with 10% HP-b-CD in distilled water, p.o. 240 minutes before the test).
Example 6 was evaluated at 0.3, 1, 3 and 10 mg/kg, and Example 8 was evaluated at 1, 3 and 10 mg/kg, administered p.o. 4 hours before the test, and compared with a vehicle control group (administered with 10% HP-b-CD, p.o. 4 hours before the test).
Diazepam (16 mg/kg) used as reference substance, was administered p.o. 60 minutes before the test (0.5% HP-b-CD) and was compared with vehicle controls.
Quantitative data (latencies) with the test substance was analyzed by comparing treated groups with vehicle control using Kruskal-Wallis test followed by Mann-Whitney U test. Quantitative data with the reference substance will be analysed using Mann-Whitney U test.
Quantal data (frequencies) were analyzed by comparing treated groups with vehicle control using Fisher's Exact Probability tests.

[7] = tested on: rat formalin paw model of inflammatory pain; experiment: Rat formalin paw model of inflammatory pain; format: in vivo; settings: 4 h pre-test, vs vehicle
Experimental: In the rat formalin paw model formalin is administered into the right […] of a rat in order to induce pain (observed by hind limb licking duration and frequency).
Male Sprague Dawley rats were divided into three cohorts to enable testing in the Laboras™ equipment to be carried out over three days in a balanced design to give treatment groups of 10. On the day of the study, male Sprague Dawley rats were weighed, tail marked and dosed orally with vehicle, test compound (0.1, 0.3, 0.6, 1, 3 or 10 mg/kg) or pregabalin (30 mg/kg) 4 h pre-test using a 5 mL/kg dosing volume. For Example 6 the vehicle used was 0.5% methylcellulose in water and for Example 8 the vehicle used was 20% HP-b-CD. Up to six animals were dosed at a time. After 4 h, rats received an intraplantar injection of 50 μL of a 2.5% v/v formalin solution into the right hind paw. Rats were immediately placed into the Laboras™ cages and data acquisition started. The primary measures recorded by Laboras™ for the formalin paw model are hind limb licking duration and frequency. Locomotion is also reported as maximum speed, average speed when moving or over the whole-time bin and distance travelled. After 40 min, when data acquisition was complete, rats were removed from the cages.
On removal from the test cages, rats were anaesthetised with the gaseous anaesthetic isoflurane (5% v/v isoflurane in oxygen) and blood samples were collected by cardiac puncture. Brains were then removed, rinsed in phosphate buffered saline (PBS), hemi-sected and frozen separately in liquid nitrogen.
Data were analysed with Statistica software (TIBCO, USA version 11.1). All data are expressed as means±standard error of the mean (sem) to one decimal place. […] Time course data were analysed by repeated measures analysis of variance (ANOVA) followed by one-way ANOVAs at each time point and subsequent Dunnett's post hoc tests. […]

IC50 (MAGL [1]): 0.0033 µM
SMILES: N#Cc1ccc(NC(=O)C2CC23CCN(C(=O)OC(C(F)(F)F)C(F)(F)F)CC3)cn1 (racemic) [Example 189, 1,1,1,3,3,3-hexafluoropropan-2-yl (+)1-((6-cyanopyridin-3-yl)carbamoyl)-6-azaspiro[2.5]octane-6-carboxylate]

SMILES: O=C(Nc1cncnc1)C1CC12CCN(C(=O)OC(C(F)(F)F)C(F)(F)F)CC2 (single isomer, unassigned) [Example 96, 1,1,1,3,3,3-hexafluoropropan-2-yl (R or S)-1-(pyrimidin-5-ylcarbamoyl)-6-azaspiro[2.5]octane-6-carboxylate]
inhibition at 1 µM (MAGL [2]; 1 μM, read-out: MAGL % inh. 1 μM (human PC3)): 100%
IC50 (MAGL [2]): 0.0193 µM
Scaled-up unbound CLint [3]: 17.09 mL/min/kg
IC50 (MAGL [4]): 0.0489 µM

IC50 (MAGL [1]): 0.39 µM
SMILES: O=C(O)COc1ccc(NC(=O)C2CC23CCN(C(=O)OC(C(F)(F)F)C(F)(F)F)CC3)cn1 (single isomer, unassigned) [Example 183, (R or S)-2-((5-(6-(((1,1,1,3,3,3-hexafluoropropan-2-yl)oxy)carbonyl)-6-azaspiro[2.5]octane-1-carboxamido)pyridin-2-yl)oxy)acetic acid]

SMILES: O=C(NC1CCOCC1)[C@H]1CC12CCN(C(=O)OC(C(F)(F)F)C(F)(F)F)CC2 [Example 8, 1,1,1,3,3,3-Hexafluoropropan-2-yl (S)-1-((tetrahydro-2H-pyran-4-yl)carbamoyl)-6-azaspiro[2.5]octane-6-carboxylate]
IC50 (MAGL [2]): 0.0657 µM
anticonvulsant activity in the MEST (seizure threshold CC50) [5]: anticonvulsant activity
Scaled-up unbound CLint [3]: 7.75 mL/min/kg
anticonvulsant effects in the kainic acid seizure test ([6]; dose-range 1-10 mg/kg p.o., 4 hours before the test, rat): clear anticonvulsant effects
magnitude of the effects in the kainic acid seizure test compared with reference ([6]; middle-high doses, reference Diazepam 16 mg/kg p.o.): close to those observed with the reference substance, Diazepam
measure of spontaneous pain (hind limb licking frequency) ([7]; 0.3 mg/kg and 0.6 mg/kg oral, late phase): statistically significant reduction
measure of spontaneous pain (hind limb licking frequency) ([7]; 1 mg/kg, 3 mg/kg and 10 mg/kg oral, both early and late phases): statistically significant reduction
